# Measurements: PubChem BioAssay AID256 (DTP/NCI, 2004)
# Inconclusive results and toxic doses are left out.
# System: CD2F1 mice, L1210 leukemia ip, survival T/C
# Assay: NCI In Vivo Anticancer Drug Screen. Data for tumor model L1210 Leukemia (intraperitoneal) in CD2F1 (CDF1) mice
# Conditions: higher = longer survival
# Summary of the method: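 Read-out first: treated-group measurement over vehicle-control measurement, expressed as a ratio. Animals bore a transplanted tumor line and were dosed with compound or vehicle.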
# [1] = endpoint: mean survival time, dose: 100.0 mg/kg/injection, schedule: Q01DX001 (ip), vehicle: saline
# [2] = endpoint: mean survival time, dose: 50.0 mg/kg/injection, schedule: Q01DX009 (ip), vehicle: saline with Tween-80
# [3] = endpoint: mean survival time, dose: 100.0 mg/kg/injection, schedule: Q01DX001 (ip), vehicle: saline with Tween-80
# [4] = endpoint: mean survival time, dose: 100.0 mg/kg/injection, schedule: Q01DX009 (ip), vehicle: saline with Tween-80
# [5] = endpoint: mean survival time, dose: 200.0 mg/kg/injection, schedule: Q01DX001 (ip), vehicle: saline with Tween-80
# [6] = endpoint: mean survival time, dose: 200.0 mg/kg/injection, schedule: Q01DX009 (ip), vehicle: saline with Tween-80
# [7] = endpoint: mean survival time, dose: 400.0 mg/kg/injection, schedule: Q01DX001 (ip), vehicle: saline with Tween-80
# [8] = endpoint: mean survival time, dose: 200.0 mg/kg/injection, schedule: Q04DX003 (ip), vehicle: saline with Tween-80
# [9] = endpoint: mean survival time, dose: 400.0 mg/kg/injection, schedule: Q04DX003 (ip), vehicle: saline with Tween-80
# [10] = endpoint: mean survival time, dose: 100.0 mg/kg/injection, schedule: Q04DX003 (ip), vehicle: saline with Tween-80
structure (smiles),measurement,setting,value
CS(=O)(=O)OCCCCOS(C)(=O)=O,T/C,"endpoint: mean survival time, dose: 3.75 mg/kg/injection, schedule: Q01DX009 (ip), vehicle: saline with Tween-80",92 % of control
same,T/C,"endpoint: mean survival time, dose: 3.75 mg/kg/injection, schedule: Q03HX008 (ip), vehicle: saline with Tween-80",96 % of control
same,T/C,"endpoint: mean survival time, dose: 3.75 mg/kg/injection, schedule: Q03HX016 (ip), vehicle: saline with Tween-80",94 % of control
same,T/C,"endpoint: mean survival time, dose: 3.75 mg/kg/injection, schedule: Q03HX024 (ip), vehicle: saline with Tween-80",104 % of control
same,T/C,"endpoint: mean survival time, dose: 7.5 mg/kg/injection, schedule: Q01DX009 (ip), vehicle: saline with Tween-80",102 % of control
same,T/C,"endpoint: mean survival time, dose: 7.5 mg/kg/injection, schedule: Q03HX008 (ip), vehicle: saline with Tween-80",100 % of control
same,T/C,"endpoint: mean survival time, dose: 7.5 mg/kg/injection, schedule: Q03HX016 (ip), vehicle: saline with Tween-80",98 % of control
same,T/C,"endpoint: mean survival time, dose: 7.5 mg/kg/injection, schedule: Q03HX024 (ip), vehicle: saline with Tween-80",106 % of control
same,T/C,"endpoint: mean survival time, dose: 12.5 mg/kg/injection, schedule: Q01DX001 (ip), vehicle: saline",98 % of control
same,T/C,"endpoint: mean survival time, dose: 15.0 mg/kg/injection, schedule: Q01DX009 (ip), vehicle: saline with Tween-80",97 % of control
same,T/C,"endpoint: mean survival time, dose: 15.0 mg/kg/injection, schedule: Q01DX009 (oral), vehicle: saline with Tween-80",97 % of control
same,T/C,"endpoint: mean survival time, dose: 15.0 mg/kg/injection, schedule: Q03HX008 (ip), vehicle: saline with Tween-80",102 % of control
same,T/C,"endpoint: mean survival time, dose: 15.0 mg/kg/injection, schedule: Q03HX016 (ip), vehicle: saline with Tween-80",98 % of control
same,T/C,"endpoint: mean survival time, dose: 15.0 mg/kg/injection, schedule: Q03HX024 (ip), vehicle: saline with Tween-80",103 % of control
same,T/C,"endpoint: mean survival time, dose: 25.0 mg/kg/injection, schedule: Q01DX001 (ip), vehicle: saline",102 % of control
same,T/C,"endpoint: mean survival time, dose: 30.0 mg/kg/injection, schedule: Q01DX001 (ip), vehicle: saline with Tween-80",98 % of control
same,T/C,"endpoint: mean survival time, dose: 30.0 mg/kg/injection, schedule: Q01DX009 (ip), vehicle: saline with Tween-80",100 % of control
same,T/C,"endpoint: mean survival time, dose: 30.0 mg/kg/injection, schedule: Q01DX009 (oral), vehicle: saline with Tween-80",94 % of control
same,T/C,"endpoint: mean survival time, dose: 30.0 mg/kg/injection, schedule: Q03HX008 (ip), vehicle: saline with Tween-80",107 % of control
same,T/C,"endpoint: mean survival time, dose: 30.0 mg/kg/injection, schedule: Q03HX016 (ip), vehicle: saline with Tween-80",98 % of control
same,T/C,"endpoint: mean survival time, dose: 30.0 mg/kg/injection, schedule: Q03HX024 (ip), vehicle: saline with Tween-80",107 % of control
same,T/C,"endpoint: mean survival time, dose: 30.0 mg/kg/injection, schedule: Q04DX003 (ip), vehicle: saline with Tween-80",101 % of control
same,T/C,"endpoint: mean survival time, dose: 30.0 mg/kg/injection, schedule: Q08DX002 (ip), vehicle: saline with Tween-80",98 % of control
same,T/C,"endpoint: mean survival time, dose: 50.0 mg/kg/injection, schedule: Q01DX001 (ip), vehicle: saline",101 % of control
same,T/C,"endpoint: mean survival time, dose: 60.0 mg/kg/injection, schedule: Q01DX001 (ip), vehicle: saline with Tween-80",104 % of control
same,T/C,"endpoint: mean survival time, dose: 60.0 mg/kg/injection, schedule: Q01DX001 (oral), vehicle: saline with Tween-80",100 % of control
same,T/C,"endpoint: mean survival time, dose: 60.0 mg/kg/injection, schedule: Q04DX003 (ip), vehicle: saline with Tween-80",96 % of control
same,T/C,"endpoint: mean survival time, dose: 60.0 mg/kg/injection, schedule: Q08DX002 (ip), vehicle: saline with Tween-80",98 % of control
same,T/C,[1],112 % of control
same,T/C,"endpoint: mean survival time, dose: 120.0 mg/kg/injection, schedule: Q01DX001 (ip), vehicle: saline with Tween-80",104 % of control
same,T/C,"endpoint: mean survival time, dose: 120.0 mg/kg/injection, schedule: Q08DX002 (ip), vehicle: saline with Tween-80",97 % of control
same,T/C,"endpoint: mean survival time, dose: 240.0 mg/kg/injection, schedule: Q08DX002 (ip), vehicle: saline with Tween-80",100 % of control
CCCCN(CCCC)C(=S)Nc1ccccc1,T/C,[2],96 % of control
same,T/C,[3],107 % of control
same,T/C,[4],96 % of control
same,T/C,[5],102 % of control
same,T/C,[6],86 % of control
same,T/C,[7],96 % of control
O=Cc1cccc(OCc2ccc([N+](=O)[O-])cc2)c1,T/C,"endpoint: mean survival time, dose: 50.0 mg/kg/injection, schedule: Q01DX009 (ip), vehicle: Klucel (hydroxypropylcellulose) (HPC)",105 % of control
same,T/C,"endpoint: mean survival time, dose: 100.0 mg/kg/injection, schedule: Q01DX009 (ip), vehicle: Klucel (hydroxypropylcellulose) (HPC)",108 % of control
same,T/C,"endpoint: mean survival time, dose: 200.0 mg/kg/injection, schedule: Q01DX009 (ip), vehicle: Klucel (hydroxypropylcellulose) (HPC)",97 % of control
COC(=O)C1CCCC(=O)C1C(=O)OC (centres undefined),T/C,"endpoint: mean survival time, dose: 100.0 mg/kg/injection, schedule: Q01DX009 (ip), vehicle: other",95 % of control
same,T/C,"endpoint: mean survival time, dose: 200.0 mg/kg/injection, schedule: Q01DX009 (ip), vehicle: other",101 % of control
same,T/C,"endpoint: mean survival time, dose: 400.0 mg/kg/injection, schedule: Q01DX009 (ip), vehicle: other",92 % of control
CCCCCCCCCCCCCCCCCCC(C)C1CCCCC1 (centres undefined),T/C,[3],104 % of control
same,T/C,[5],107 % of control
same,T/C,[7],101 % of control
CCC(=O)Nc1ccccc1OS(=O)(=O)N(C)C,T/C,[8],97 % of control
same,T/C,[9],98 % of control
CCC(/C=C/C(C)C1CCC2C3CC=C4CC(O)CCC4(C)C3CCC12C)C(C)C (centres undefined) (tested in a mixture with another compound),T/C,"endpoint: mean survival time, dose: 12.5 mg/kg/injection, schedule: Q01DX001 (ip), vehicle: water",97 % of control
same,T/C,"endpoint: mean survival time, dose: 12.5 mg/kg/injection, schedule: Q01DX009 (ip), vehicle: water",100 % of control
same,T/C,"endpoint: mean survival time, dose: 25.0 mg/kg/injection, schedule: Q01DX001 (ip), vehicle: water",97 % of control
same,T/C,"endpoint: mean survival time, dose: 25.0 mg/kg/injection, schedule: Q01DX009 (ip), vehicle: other",94 % of control
same,T/C,"endpoint: mean survival time, dose: 25.0 mg/kg/injection, schedule: Q01DX009 (ip), vehicle: water",103 % of control
same,T/C,"endpoint: mean survival time, dose: 50.0 mg/kg/injection, schedule: Q01DX001 (ip), vehicle: water",102 % of control
same,T/C,"endpoint: mean survival time, dose: 50.0 mg/kg/injection, schedule: Q01DX009 (ip), vehicle: other",91 % of control
same,T/C,"endpoint: mean survival time, dose: 50.0 mg/kg/injection, schedule: Q01DX009 (ip), vehicle: water",96 % of control
same,T/C,[4],94 % of control
same,T/C,[6],89 % of control
CC#CC(=O)SCCNC(=O)CCNC(C)=O,T/C,"endpoint: mean survival time, dose: 12.5 mg/kg/injection, schedule: Q01DX009 (ip), vehicle: saline with Tween-80",112 % of control
same,T/C,"endpoint: mean survival time, dose: 25.0 mg/kg/injection, schedule: Q01DX009 (ip), vehicle: saline with Tween-80",102 % of control
same,T/C,"endpoint: mean survival time, dose: 25.0 mg/kg/injection, schedule: Q04DX003 (ip), vehicle: saline",105 % of control
same,T/C,[2],108 % of control
same,T/C,"endpoint: mean survival time, dose: 50.0 mg/kg/injection, schedule: Q04DX003 (ip), vehicle: saline",112 % of control
same,T/C,[4],119 % of control
same,T/C,"endpoint: mean survival time, dose: 100.0 mg/kg/injection, schedule: Q04DX003 (ip), vehicle: saline",103 % of control
O=CC(CO)OC(C=O)n1ccc(=O)[nH]c1=O (centres undefined),T/C,"endpoint: median survival time, dose: 50.0 mg/kg/injection, schedule: Q04DX003 (ip), vehicle: saline",116 % of control
same,T/C,"endpoint: median survival time, dose: 200.0 mg/kg/injection, schedule: Q04DX003 (ip), vehicle: saline",178 % of control
same,T/C,"endpoint: median survival time, dose: 400.0 mg/kg/injection, schedule: Q04DX003 (ip), vehicle: saline",285 % of control
same,T/C,"endpoint: median survival time, dose: 800.0 mg/kg/injection, schedule: Q04DX003 (ip), vehicle: saline",261 % of control
CC(=O)Nc1ncc2ccccc2c1-c1ccc(NC(=O)CCCl)cc1,T/C,"endpoint: mean survival time, dose: 25.0 mg/kg/injection, schedule: Q04DX003 (ip), vehicle: DMSO",101 % of control
same,T/C,"endpoint: mean survival time, dose: 50.0 mg/kg/injection, schedule: Q04DX003 (ip), vehicle: DMSO",96 % of control
same,T/C,"endpoint: mean survival time, dose: 100.0 mg/kg/injection, schedule: Q04DX003 (ip), vehicle: DMSO",94 % of control
same,T/C,"endpoint: mean survival time, dose: 200.0 mg/kg/injection, schedule: Q04DX003 (ip), vehicle: DMSO",91 % of control
same,T/C,"endpoint: mean survival time, dose: 400.0 mg/kg/injection, schedule: Q04DX003 (ip), vehicle: DMSO",94 % of control
N#Cc1cn(C2OC(CO)C(O)C2O)c2ncn(N)c(=N)c12 (centres undefined),T/C,"endpoint: mean survival time, dose: 25.0 mg/kg/injection, schedule: Q01DX005 (ip), vehicle: water",110 % of control
same,T/C,"endpoint: mean survival time, dose: 50.0 mg/kg/injection, schedule: Q01DX005 (ip), vehicle: water",111 % of control
same,T/C,"endpoint: mean survival time, dose: 100.0 mg/kg/injection, schedule: Q01DX005 (ip), vehicle: water",118 % of control
CN(C)/N=C(\CBr)c1ccc(Br)cc1,T/C,[1],103 % of control
same,T/C,"endpoint: mean survival time, dose: 200.0 mg/kg/injection, schedule: Q01DX001 (ip), vehicle: saline",100 % of control
CC(C)(C)C1CCC(O)(CSc2ccccc2)CC1 (centres undefined),T/C,[10],97 % of control
same,T/C,[8],92 % of control
same,T/C,[9],92 % of control
CSCCC(NC(=O)CN)C(=O)O (centres undefined),T/C,[2],96 % of control
same,T/C,[4],92 % of control
same,T/C,[6],100 % of control
CN(C)Cc1cc(C(C)(C)C)cc(C2CCCCC2)c1O,T/C,[10],100 % of control
same,T/C,[8],100 % of control
same,T/C,[9],103 % of control
